Tests used:
Bacillus subtilis = assay: Antimicrobial activity against Bacillus subtilis after 16 hrs by broth microdilution method; assay type: functional
A549 = assay: Cytotoxicity against human A549 cells by MTT assay; assay type: functional, cell-based
HeLa = assay: Cytotoxicity against human HeLa cells by MTT assay; assay type: functional, cell-based
Escherichia coli = assay: Antimicrobial activity against Escherichia coli after 16 hrs by broth microdilution method; assay type: functional
Candida albicans = assay: Antimicrobial activity against Candida albicans after 16 hrs by broth microdilution method; assay type: functional
Staphylococcus aureus = assay: Antimicrobial activity against methicillin-resistant Staphylococcus aureus after 16 hrs by broth microdilution method; assay type: functional

Row | Compound | MIC (Bacillus subtilis) [µg/mL] | IC50 (A549) [nM] | IC50 (HeLa) [nM] | MIC (Escherichia coli) [µg/mL] | MIC (Candida albicans) [µg/mL] | MIC (Staphylococcus aureus) [µg/mL]
1 | C[C@@H]1C[C@@H](O)[C@]2(O)O[C@@H]3C[C@@]4(C=O)[C@@H](CC[C@@H]5[C@@H]4CC[C@]4(C)[C@@H](C6=CC(=O)OC6)C[C@@H](O)[C@]54O)C[C@H]3O[C@@H]2C1 | > 100 | 79 | 128 | > 100 | > 100 | > 100
2 | CO[C@@H]1C[C@@H](C)C[C@H]2O[C@@H]3C[C@@H]4CC[C@@H]5[C@H](CC[C@]6(C)[C@@H](C7=CC(=O)OC7)C[C@@H](O)[C@]56O)[C@@]4(C=O)C[C@H]3O[C@@]12O | > 100 | 65 | 104 | > 100 | > 100 | > 100
3 | C[C@@H]1C[C@@H](O)[C@]2(O)O[C@@H]3C[C@@]4(C)[C@@H](CC[C@@H]5[C@@H]4CC[C@]4(C)[C@@H](C6=CC(=O)OC6)C[C@@H](O)[C@]54O)C[C@H]3O[C@@H]2C1 | > 100 | 347 | 663 | > 100 | > 100 | > 100
4 | C[C@H]1C[C@H]2O[C@@H]3C[C@@H]4CC[C@@H]5[C@H](CC[C@]6(C)[C@@H](C7=CC(=O)OC7)CC[C@]56O)[C@@]4(C=O)C[C@H]3O[C@@]2(O)[C@H](O)[C@@H]1O | > 100 | 58 | 87 | > 100 | > 100 | > 100
5 | C[C@H]1C[C@H]2O[C@@H]3C[C@@H]4CC[C@@H]5[C@H](CC[C@]6(C)[C@@H](C7=CC(=O)OC7)C[C@@H](O)[C@]56O)[C@@]4(C=O)C[C@H]3O[C@@]2(O)[C@@]2(C1)N=CCS2 | > 100 | 157 | 318 | > 100 | > 100 | > 100
6 | C[C@]12[C@H](O)C[C@H]3[C@@H](CC[C@H]4C[C@H](O)CC[C@@]43CO)[C@@]1(O)CC[C@@H]2C1=CC(=O)OC1 | > 100 | 604 | 1150 | > 100 | > 100 | > 100
7 | C[C@]12[C@H](O)C[C@H]3[C@@H](CC[C@H]4C[C@H](O)CC[C@@]43C=O)[C@@]1(O)CC[C@@H]2C1=CC(=O)OC1 | > 100 | 1020 | 1430 | > 100 | > 100 | > 100
8 | C[C@]12C[C@@H](O)[C@H](O)C[C@@H]1CC[C@@H]1[C@@H]2CC[C@]2(C)[C@@H](C3=CC(=O)OC3)C[C@@H](O)[C@]12O | > 100 | 1690 | 2470 | > 100 | > 100 | > 100
9 | C[C@]12[C@H](O)C[C@H]3[C@@H](CC[C@H]4C[C@@H](O)CC[C@@]43CO)[C@@]1(O)CC[C@@H]2C1=CC(=O)OC1 | > 100 | 549 | 863 | > 100 | > 100 | > 100
10 | C[C@@H]1C[C@@H](O)[C@]2(O)O[C@@H]3C[C@@]4(C=O)[C@@H](CC[C@@H]5[C@@H]4CC[C@]4(C)[C@@H](C6=CC(=O)OC6)CC[C@]54O)C[C@H]3O[C@@H]2O1 [CALACTIN] | > 100 | – | – | > 100 | > 100 | > 100
11 | C[C@@H]1C[C@@]2(N=CCS2)[C@]2(O)O[C@@H]3C[C@@]4(C=O)[C@@H](CC[C@@H]5[C@@H]4CC[C@]4(C)[C@@H](C6=CC(=O)OC6)CC[C@]54O)C[C@H]3O[C@@H]2O1 [USCHARIN] | > 100 | 104 | 275 | > 100 | > 100 | > 100

From ChEMBL document CHEMBL3616435, “Cytotoxic cardenolides from the latex of Calotropis procera” (Bioorg Med Chem Lett, 2015)
